From patent US6784137B2, “6-aryl-4-aminopicolinates and their use as herbicides” (Dow AgroSciences LLC, priority 2001, dated 2004)
Where two headings read alike, the source gives them in different places.

What was measured:
[1] = system: Barnyardgrass (Echinochloa crus-galli); assay: Postemergence herbicidal activity, greenhouse spray; type: in vivo; conditions: visual score after 2 weeks; for pest or weed control at 250 ppm / pest or weed control at 500 ppm / pest or weed control at 125 ppm: Echinochloa crus-galli, post-emergence, 336 h, read-out: Post-emergent % control ECHCG; for pest or weed control at 250 ppm: rate 250 ppm
Method: (§1) When required to ensure good germination and healthy plants, a fungicide treatment and/or other chemical or physical treatment was applied. The plants were grown for 7-21 days in a greenhouse with an approximate 15 hr photoperiod which was maintained at about 23-29° C. during the day and 22-28° C. during the night. Nutrients and water were added on a regular basis and supplemental lighting was provided with overhead metal halide 1000-Watt lamps as necessary. The plants were employed for testing when they reached the first or second true leaf stage. A weighed amount, determined by the highest rate to be tested, of each test compound was placed in a 20 mL glass vial and was dissolved in 4 mL of a 97:3 v/v (volume/volume) mixture of acetone and dimethyl sulfoxide (DMSO) to obtain concentrated stock solutions. […] The concentrated stock solutions obtained were diluted with an aqueous mixture containing acetone, water, isopropyl alcohol, DMSO, At plus 411 F crop oil concentrate, and Triton X-155 surfactant in a 48.5:39:10:1.5:1.0:0.02 v/v ratio to obtain spray solutions of known concentration. The solutions containing the highest concentration to be tested were prepared by diluting 2 mL aliquots of the stock solution with 13 mL of the mixture and lower concentrations were prepared by serial dilution of the stock solution. Approximately 1.5 mL aliquots of each solution of known concentration were sprayed evenly onto each of the test plant pots using a DeVilbiss atomizer driven by compressed air pressure of 2 to 4 psi (140 to 280 kiloPascals) to obtain thorough coverage of each plant. Control plants were sprayed in the same manner with the aqueous mixture. […] The treated plants and control plants were placed in a greenhouse as described above and watered by sub-irrigation to prevent wash-off of the test compounds.

[2] = system: Yellow nutsedge (Cyperus esculentus); assay: as above; type: in vivo; conditions: visual score after 2 weeks; for pest or weed control at 250 ppm / pest or weed control at 500 ppm / pest or weed control at 125 ppm: Cyperus, post-emergence, 336 h, read-out: Post-emergent % control CYPES; for pest or weed control at 250 ppm: rate 250 ppm
Method: as §1

[3] = system: Lambsquarter (Chenopodium album); assay: as above; type: in vivo; conditions: visual score after 2 weeks; for pest or weed control at 250 ppm / pest or weed control at 500 ppm / pest or weed control at 125 ppm: Chenopodium album, post-emergence, 336 h, read-out: Post-emergent % control CHEAL; for pest or weed control at 250 ppm: rate 250 ppm
Method: as §1

[4] = system: Cocklebur (Xanthium strumarium); assay: as above; type: in vivo; conditions: visual score after 2 weeks; for pest or weed control at 250 ppm / pest or weed control at 500 ppm / pest or weed control at 125 ppm: Xanthium strumarium, post-emergence, 336 h, read-out: Post-emergent % control XANST; for pest or weed control at 250 ppm: rate 250 ppm
Method: as §1

[5] = Table 1, rate 500 ppm, 0 no injury, 100 complete kill

COC(=O)c1nc(-c2ccc(C(F)(F)F)cc2)c(Cl)c(N)c1Cl [Compound 44, Methyl 4-amino-3,5-dichloro-6-[4-(trifluoromethyl)phenyl]pyridine-2-carboxylate] gave a pest or weed control at 250 ppm ([1]; Table 1) of 30%, a pest or weed control at 250 ppm ([2]; Table 1) of 70% and a pest or weed control at 250 ppm ([3]; Table 1) of 80%. It also gave a pest or weed control at 250 ppm ([4]; Table 1) of 100% and a melting point of 110 to 111 °C.

Work on COC(=O)c1nc(-c2ccc3ccccc3c2)cc(N)c1Cl [Compound 47, Methyl 4-amino-3-chloro-6-(2-naphthyl)pyridine-2-carboxylate] yielded a pest or weed control at 500 ppm ([1]; Table 1, rate 500 ppm) of 80%, a pest or weed control at 500 ppm ([2]; Table 1, rate 500 ppm) of 0% and a pest or weed control at 500 ppm ([3]; Table 1, rate 500 ppm) of 90%. The pest or weed control at 500 ppm [4, 5] was 90% and the melting point was 108 to 109 °C.

With COC(=O)c1nc(-c2ccc(Cl)cc2Cl)c(F)c(NC(C)=O)c1Cl [Compound 49, Methyl 4-acetamido-3-chloro-5-fluoro-6-(2,4-dichlorophenyl)pyridine-2-carboxylate] the pest or weed control at 125 ppm ([1]; Table 1, rate 125 ppm) was 10%, the pest or weed control at 125 ppm ([2]; Table 1, rate 125 ppm) was 30% and the pest or weed control at 125 ppm ([3]; Table 1, rate 125 ppm) was 80%. The pest or weed control at 125 ppm ([4]; Table 1, rate 125 ppm) was 100% and the melting point was 178 to 179 °C.

COC(=O)c1nc(-c2ccc3c(c2)CCO3)c(F)c(N)c1Cl [Compound 85, Methyl 4-amino-3-chloro-5-fluoro-6-(2,3-dihydro-5-benzofuranyl)pyridine-2-carboxylate] showed a pest or weed control at 250 ppm ([1]; Table 1) of 99%, a pest or weed control at 250 ppm ([2]; Table 1) of 70% and a pest or weed control at 250 ppm ([3]; Table 1) of 100%. For the same compound, the pest or weed control at 250 ppm ([4]; Table 1) was 100% and the melting point was 120 °C.

For COC(=O)c1nc(-c2ccc(C(F)(F)F)cc2)c(F)c(N)c1F [Compound 94, Methyl 4-amino-3,5-difluoro-6-[4-(trifluoromethyl)phenyl]pyridine-2-carboxylate], the pest or weed control at 500 ppm ([1]; Table 1, rate 500 ppm) was 90%, the pest or weed control at 500 ppm ([2]; Table 1, rate 500 ppm) was 90% and the pest or weed control at 500 ppm ([3]; Table 1, rate 500 ppm) was 100%. The pest or weed control at 500 ppm [4, 5] was 100% and the melting point was 177 to 178 °C.

Compound COC(=O)c1nc(-c2ccc3c(c2)OCO3)c(F)c(N)c1F [Compound 95, Methyl 4-amino-3,5-difluoro-6-(3,4-methylenedioxyphenyl)pyridine-2-carboxylate] has a pest or weed control at 125 ppm ([1]; Table 1, rate 125 ppm) of 70%, a pest or weed control at 125 ppm ([2]; Table 1, rate 125 ppm) of 60% and a pest or weed control at 125 ppm ([3]; Table 1, rate 125 ppm) of 90%. For the same compound, the pest or weed control at 125 ppm ([4]; Table 1, rate 125 ppm) was 80% and the melting point was 189 to 190 °C.

With COC(=O)c1nc(-c2ccc(Cl)cn2)cc(N)c1Cl [Compound 111, Methyl 4-amino-3-chloro-6-(5-chloro-2-pyridyl)pyridine-2-carboxylate] the pest or weed control at 250 ppm ([1]; Table 1) was 70%, the pest or weed control at 250 ppm ([2]; Table 1) was 80% and the pest or weed control at 250 ppm ([3]; Table 1) was 100%. The pest or weed control at 250 ppm ([4]; Table 1) was 100% and the melting point was 145 to 150 °C.

With Nc1cc(-c2ccc(F)cc2Cl)nc(C(=O)O)c1Cl [Compound 170, 4-Amino-3-chloro-6-(2-chloro-4-fluorophenyl)pyridine-2-carboxylic acid] the pest or weed control at 500 ppm ([1]; Table 1, rate 500 ppm) was 80%, the pest or weed control at 500 ppm ([2]; Table 1, rate 500 ppm) was 70% and the pest or weed control at 500 ppm ([3]; Table 1, rate 500 ppm) was 100%. The pest or weed control at 500 ppm [4, 5] was 100% and the melting point was 156 to 157 °C.

For Nc1c(Cl)c(C(=O)O)nc(-c2ccc(C(F)(F)F)cc2)c1Cl [Compound 171, 4-Amino-3′,5-dichloro-6-[4-(trifluoromethyl)phenyl]pyridine-2-carboxylic acid], the “Post-emergent % control ECHCG” value ([1]; Table 1, rate 500 ppm) was 80%, the “Post-emergent % control CYPES” value ([2]; Table 1, rate 500 ppm) was 60% and the “Post-emergent % control CHEAL” value ([3]; Table 1, rate 500 ppm) was 95%. The “Post-emergent % control XANST” value [4, 5] was 100%.

In the case of Nc1c(F)c(-c2ccc(Cl)cc2)nc(C(=O)O)c1Cl [Compound 183, 4-Amino-3-chloro-5-fluoro-6-(4-chlorophenyl)pyridine-2-carboxylic acid], the pest or weed control at 125 ppm ([1]; Table 2, rate 125 ppm) is reported as 100%, the pest or weed control at 125 ppm ([2]; Table 2, rate 125 ppm) is reported as 100% and the pest or weed control at 125 ppm ([3]; Table 2, rate 125 ppm) is reported as 100%. For the same compound, the pest or weed control at 125 ppm ([4]; Table 2, rate 125 ppm) was 100%.

Nc1c(F)c(-c2ccc(Cl)cc2Cl)nc(C(=O)O)c1Cl [Compound 199, 4-Amino-3-chloro-5-fluoro-6-(2,4-dichlorophenyl)pyridine-2-carboxylic acid] gave a pest or weed control at 250 ppm ([1]; Table 1) of 85%, a pest or weed control at 125 ppm ([1]; Table 2, rate 125 ppm) of 80% and a pest or weed control at 250 ppm ([2]; Table 1) of 95%. The pest or weed control at 125 ppm ([2]; Table 2, rate 125 ppm) was 90%, the pest or weed control at 250 ppm ([3]; Table 1) was 100% and the pest or weed control at 125 ppm ([3]; Table 2, rate 125 ppm) was 100%. It also gave a pest or weed control at 250 ppm ([4]; Table 1) of 100%, a pest or weed control at 125 ppm ([4]; Table 2, rate 125 ppm) of 100% and a melting point of 152 °C.

For Nc1c(F)c(C(=O)O)nc(-c2ccc(C(F)(F)F)cc2)c1F [Compound 200, 4-Amino-3,5-fluoro-6-(4-(trifluoromethyl)phenyl)pyridine-2-carboxylic acid], the “Post-emergent % control ECHCG” value ([1]; Table 1, rate 500 ppm) was 95%, the “Post-emergent % control ECHCG” value ([1]; Table 2, rate 125 ppm) was 70% and the “Post-emergent % control CYPES” value ([2]; Table 1, rate 500 ppm) was 90%. The “Post-emergent % control CYPES” value ([2]; Table 2, rate 125 ppm) was 90%, the “Post-emergent % control CHEAL” value ([3]; Table 1, rate 500 ppm) was 95% and the “Post-emergent % control CHEAL” value ([3]; Table 2, rate 125 ppm) was 80%. The “Post-emergent % control XANST” value [4, 5] was 100% and the “Post-emergent % control XANST” value ([4]; Table 2, rate 125 ppm) was 90%.

Nc1c(F)c(C(=O)O)nc(-c2ccc(Cl)cc2F)c1F [Compound 206, 4-Amino-3,5-difluoro-6-(4-chloro-2-fluorophenyl)pyridine-2-carboxylic acid] gave a pest or weed control at 500 ppm ([1]; Table 1, rate 500 ppm) of 85%, a pest or weed control at 500 ppm ([2]; Table 1, rate 500 ppm) of 70% and a pest or weed control at 500 ppm ([3]; Table 1, rate 500 ppm) of 95%. It also gave a pest or weed control at 500 ppm [4, 5] of 99% and a melting point of 155 to 156 °C.

Nc1cc(-c2ccc(Cl)s2)nc(C(=O)O)c1Cl [Compound 215, 4-Amino-3-chloro-6-(5-chloro-2-thienyl)pyridine-2-carboxylic acid] showed a pest or weed control at 125 ppm ([1]; Table 1, rate 125 ppm) of 70%, a pest or weed control at 125 ppm ([2]; Table 1, rate 125 ppm) of 70% and a pest or weed control at 125 ppm ([3]; Table 1, rate 125 ppm) of 100%. The pest or weed control at 125 ppm ([4]; Table 1, rate 125 ppm) was 100% and the melting point was 178 to 179 °C.

Compound Nc1cc(-c2cc3ccccc3o2)nc(C(=O)O)c1Cl [Compound 219, 4-Amino-6-(2-benzofuranyl)-3-chloropyridine-2-carboxylic acid] has a pest or weed control at 250 ppm ([1]; Table 1) of 80%, a pest or weed control at 250 ppm ([2]; Table 1) of 0% and a pest or weed control at 250 ppm ([3]; Table 1) of 100%. For the same compound, the pest or weed control at 250 ppm ([4]; Table 1) was 100% and the melting point was 151 °C.

Compound Nc1cc(-c2cc3ccccc3s2)nc(C(=O)O)c1Cl [Compound 224, 4-Amino-3-chloro-6-(2-benzothienyl)pyridine-2-carboxylic acid] has a pest or weed control at 125 ppm ([1]; Table 1, rate 125 ppm) of 85%, a pest or weed control at 125 ppm ([2]; Table 1, rate 125 ppm) of 30% and a pest or weed control at 125 ppm ([3]; Table 1, rate 125 ppm) of 100%. The pest or weed control at 125 ppm ([4]; Table 1, rate 125 ppm) was 100% and the melting point was 176 °C.

Compound Nc1cc(-c2ccc(Cl)nc2)nc(C(=O)O)c1Cl [Compound 225, 4-Amino-3-chloro-6-(6-chloro-3-pyridinyl)pyridine-2-carboxylic acid] has a pest or weed control at 125 ppm ([1]; Table 1, rate 125 ppm) of 40%, a pest or weed control at 125 ppm ([2]; Table 1, rate 125 ppm) of 60% and a pest or weed control at 125 ppm ([3]; Table 1, rate 125 ppm) of 70%. It also gave a pest or weed control at 125 ppm ([4]; Table 1, rate 125 ppm) of 90% and a melting point of 110 to 114 °C.
